Experimental data reported in ChEMBL document CHEMBL5442219.

Tests used:
Conditions in all cases: Compound concentration 10 µM
[1] = biological target: 5-hydroxytryptamine receptor 1B (Homo sapiens) (UniProt P28222)
Description: PDSP Primary Binding target: HTR1B - Compounds are tested at 10 uM concentration, plate are incubated at room temperature in the dark for 90 minutes. Reaction are stopped by vacuum filtration onto 0.3% polyethyleneimine soaked filter mats using Filtermate harvester. Scintilation cocktail is then melted onto microwave-dried filters on a hot plate and the radio activity is counted in Microbia counter.

[2] = biological target: Kappa-type opioid receptor (Homo sapiens) (UniProt P41145)
Description: PDSP Primary Binding target: OPRK1 - Compounds are tested at 10 uM concentration, plate are incubated at room temperature in the dark for 90 minutes. Reaction are stopped by vacuum filtration onto 0.3% polyethyleneimine soaked filter mats using Filtermate harvester. Scintilation cocktail is then melted onto microwave-dried filters on a hot plate and the radio activity is counted in Microbia counter.

[3] = biological target: T1, Muscarinic acetylcholine receptor M2 (Homo sapiens) (UniProt P08172)
T1 sequence (whole entry): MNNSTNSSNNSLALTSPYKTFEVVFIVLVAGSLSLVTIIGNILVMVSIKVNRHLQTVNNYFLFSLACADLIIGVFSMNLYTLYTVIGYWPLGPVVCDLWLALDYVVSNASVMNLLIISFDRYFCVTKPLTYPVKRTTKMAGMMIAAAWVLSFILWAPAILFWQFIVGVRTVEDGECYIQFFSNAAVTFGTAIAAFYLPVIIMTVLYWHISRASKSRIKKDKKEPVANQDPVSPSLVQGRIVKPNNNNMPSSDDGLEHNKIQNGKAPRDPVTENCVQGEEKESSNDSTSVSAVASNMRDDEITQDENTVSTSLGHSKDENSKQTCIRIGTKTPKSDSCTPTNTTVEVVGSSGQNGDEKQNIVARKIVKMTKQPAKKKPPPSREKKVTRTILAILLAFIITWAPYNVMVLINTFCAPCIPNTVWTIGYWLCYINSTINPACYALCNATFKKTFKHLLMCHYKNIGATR
Description: PDSP Primary Binding target: CHRM2 - Compounds are tested at 10 uM concentration, plate are incubated at room temperature in the dark for 90 minutes. Reaction are stopped by vacuum filtration onto 0.3% polyethyleneimine soaked filter mats using Filtermate harvester. Scintilation cocktail is then melted onto microwave-dried filters on a hot plate and the radio activity is counted in Microbia counter.

[4] = biological target: D(3) dopamine receptor (Homo sapiens) (UniProt P35462)
Sequence of D(3) dopamine receptor (Homo sapiens) (P35462 whole entry): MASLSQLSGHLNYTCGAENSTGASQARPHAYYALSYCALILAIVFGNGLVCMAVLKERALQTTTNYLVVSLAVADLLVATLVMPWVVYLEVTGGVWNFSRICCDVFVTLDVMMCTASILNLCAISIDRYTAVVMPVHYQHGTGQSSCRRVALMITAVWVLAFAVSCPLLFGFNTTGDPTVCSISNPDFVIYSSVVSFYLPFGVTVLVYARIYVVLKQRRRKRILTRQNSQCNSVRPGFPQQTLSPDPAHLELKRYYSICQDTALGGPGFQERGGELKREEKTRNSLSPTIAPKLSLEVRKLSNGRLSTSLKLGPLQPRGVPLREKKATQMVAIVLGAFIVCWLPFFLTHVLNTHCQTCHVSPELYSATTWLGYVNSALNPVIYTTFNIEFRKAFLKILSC
Description: PDSP Primary Binding target: DRD3 - Compounds are tested at 10 uM concentration, plate are incubated at room temperature in the dark for 90 minutes. Reaction are stopped by vacuum filtration onto 0.3% polyethyleneimine soaked filter mats using Filtermate harvester. Scintilation cocktail is then melted onto microwave-dried filters on a hot plate and the radio activity is counted in Microbia counter.

[5] = biological target: 5-hydroxytryptamine receptor 2B (Homo sapiens) (UniProt P41595)
Sequence of 5-hydroxytryptamine receptor 2B (Homo sapiens) (P41595 whole entry): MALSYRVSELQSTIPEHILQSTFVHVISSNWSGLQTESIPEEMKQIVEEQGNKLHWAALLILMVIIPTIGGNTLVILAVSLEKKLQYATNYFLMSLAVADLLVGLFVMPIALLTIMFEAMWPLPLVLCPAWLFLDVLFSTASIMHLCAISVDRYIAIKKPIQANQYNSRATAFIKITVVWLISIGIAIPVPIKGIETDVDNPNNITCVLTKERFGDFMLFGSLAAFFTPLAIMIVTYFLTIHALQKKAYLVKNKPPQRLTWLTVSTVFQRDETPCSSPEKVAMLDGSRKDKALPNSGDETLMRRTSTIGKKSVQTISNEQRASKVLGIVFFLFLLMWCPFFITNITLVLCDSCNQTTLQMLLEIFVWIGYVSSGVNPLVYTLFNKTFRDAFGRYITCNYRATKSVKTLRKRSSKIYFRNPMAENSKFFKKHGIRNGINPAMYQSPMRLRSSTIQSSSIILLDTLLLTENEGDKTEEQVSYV
Description: PDSP Primary Binding target: HTR2B - Compounds are tested at 10 uM concentration, plate are incubated at room temperature in the dark for 90 minutes. Reaction are stopped by vacuum filtration onto 0.3% polyethyleneimine soaked filter mats using Filtermate harvester. Scintilation cocktail is then melted onto microwave-dried filters on a hot plate and the radio activity is counted in Microbia counter.

[6] = biological target: T2, Muscarinic acetylcholine receptor M5 (Homo sapiens) (UniProt P08912)
T2 sequence (whole entry): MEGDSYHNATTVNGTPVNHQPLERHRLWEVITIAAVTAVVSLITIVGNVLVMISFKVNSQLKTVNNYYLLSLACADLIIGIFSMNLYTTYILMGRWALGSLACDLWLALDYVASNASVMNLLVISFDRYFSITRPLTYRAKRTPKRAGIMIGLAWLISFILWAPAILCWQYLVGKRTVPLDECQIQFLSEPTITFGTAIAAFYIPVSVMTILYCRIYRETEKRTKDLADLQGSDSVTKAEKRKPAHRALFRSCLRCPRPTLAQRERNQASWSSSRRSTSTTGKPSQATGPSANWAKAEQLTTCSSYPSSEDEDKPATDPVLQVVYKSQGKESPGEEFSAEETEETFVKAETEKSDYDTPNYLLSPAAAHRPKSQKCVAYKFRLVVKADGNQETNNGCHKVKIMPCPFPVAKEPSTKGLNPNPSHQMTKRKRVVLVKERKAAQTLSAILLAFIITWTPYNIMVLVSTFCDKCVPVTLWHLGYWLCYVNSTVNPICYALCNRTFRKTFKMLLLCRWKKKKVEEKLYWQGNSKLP
Description: PDSP Primary Binding target: CHRM5 - Compounds are tested at 10 uM concentration, plate are incubated at room temperature in the dark for 90 minutes. Reaction are stopped by vacuum filtration onto 0.3% polyethyleneimine soaked filter mats using Filtermate harvester. Scintilation cocktail is then melted onto microwave-dried filters on a hot plate and the radio activity is counted in Microbia counter.

[7] = biological target: Beta-1 adrenergic receptor (Homo sapiens) (UniProt P08588)
Sequence of Beta-1 adrenergic receptor (Homo sapiens) (P08588 whole entry, looked up): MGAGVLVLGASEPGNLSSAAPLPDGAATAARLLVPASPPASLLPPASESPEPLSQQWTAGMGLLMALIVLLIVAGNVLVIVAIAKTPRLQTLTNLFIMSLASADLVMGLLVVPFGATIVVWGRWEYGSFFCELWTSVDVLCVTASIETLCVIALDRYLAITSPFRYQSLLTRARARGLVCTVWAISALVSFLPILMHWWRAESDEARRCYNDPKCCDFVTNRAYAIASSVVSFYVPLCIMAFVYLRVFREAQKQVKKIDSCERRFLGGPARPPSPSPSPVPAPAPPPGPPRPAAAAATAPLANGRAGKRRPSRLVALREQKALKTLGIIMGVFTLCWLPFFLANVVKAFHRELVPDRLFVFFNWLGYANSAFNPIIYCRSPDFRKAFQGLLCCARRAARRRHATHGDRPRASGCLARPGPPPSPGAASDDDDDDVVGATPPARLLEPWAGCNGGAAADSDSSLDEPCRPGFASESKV
Description: PDSP Primary Binding target: ADRB1 - Compounds are tested at 10 uM concentration, plate are incubated at room temperature in the dark for 90 minutes. Reaction are stopped by vacuum filtration onto 0.3% polyethyleneimine soaked filter mats using Filtermate harvester. Scintilation cocktail is then melted onto microwave-dried filters on a hot plate and the radio activity is counted in Microbia counter.

[8] = biological target: T3, 5-hydroxytryptamine receptor 1A (Homo sapiens) (UniProt P08908)
T3 sequence (whole entry): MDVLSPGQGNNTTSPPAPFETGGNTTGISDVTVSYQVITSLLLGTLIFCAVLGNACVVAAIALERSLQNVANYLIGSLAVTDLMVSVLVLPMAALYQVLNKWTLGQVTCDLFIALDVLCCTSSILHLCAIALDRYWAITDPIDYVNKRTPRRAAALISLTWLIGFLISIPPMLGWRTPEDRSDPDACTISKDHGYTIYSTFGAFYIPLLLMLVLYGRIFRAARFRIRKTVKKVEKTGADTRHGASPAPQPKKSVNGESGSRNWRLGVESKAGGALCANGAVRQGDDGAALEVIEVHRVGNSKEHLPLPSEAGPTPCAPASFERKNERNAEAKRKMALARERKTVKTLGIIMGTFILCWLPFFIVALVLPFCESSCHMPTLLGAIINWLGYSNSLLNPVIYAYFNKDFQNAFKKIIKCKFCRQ
Description: PDSP Primary Binding target: HTR1A - Compounds are tested at 10 uM concentration, plate are incubated at room temperature in the dark for 90 minutes. Reaction are stopped by vacuum filtration onto 0.3% polyethyleneimine soaked filter mats using Filtermate harvester. Scintilation cocktail is then melted onto microwave-dried filters on a hot plate and the radio activity is counted in Microbia counter.

[9] = biological target: T4, Alpha-1A adrenergic receptor (Homo sapiens) (UniProt P35348)
T4 sequence (whole entry): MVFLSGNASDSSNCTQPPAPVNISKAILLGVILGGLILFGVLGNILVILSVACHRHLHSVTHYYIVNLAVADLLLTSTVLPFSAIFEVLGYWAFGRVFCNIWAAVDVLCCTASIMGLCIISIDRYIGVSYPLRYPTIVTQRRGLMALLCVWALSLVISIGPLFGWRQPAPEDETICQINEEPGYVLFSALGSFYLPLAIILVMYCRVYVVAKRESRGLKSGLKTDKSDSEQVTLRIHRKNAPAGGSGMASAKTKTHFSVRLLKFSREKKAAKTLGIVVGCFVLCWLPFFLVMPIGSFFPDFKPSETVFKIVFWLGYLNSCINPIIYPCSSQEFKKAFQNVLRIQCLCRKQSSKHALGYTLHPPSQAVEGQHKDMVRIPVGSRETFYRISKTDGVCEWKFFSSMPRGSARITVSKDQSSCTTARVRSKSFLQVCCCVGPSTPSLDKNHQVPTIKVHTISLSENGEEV
Description: PDSP Primary Binding target: ADRA1A - Compounds are tested at 10 uM concentration, plate are incubated at room temperature in the dark for 90 minutes. Reaction are stopped by vacuum filtration onto 0.3% polyethyleneimine soaked filter mats using Filtermate harvester. Scintilation cocktail is then melted onto microwave-dried filters on a hot plate and the radio activity is counted in Microbia counter.

[10] = biological target: T5, Alpha-2C adrenergic receptor (Homo sapiens) (UniProt P18825)
T5 sequence (whole entry): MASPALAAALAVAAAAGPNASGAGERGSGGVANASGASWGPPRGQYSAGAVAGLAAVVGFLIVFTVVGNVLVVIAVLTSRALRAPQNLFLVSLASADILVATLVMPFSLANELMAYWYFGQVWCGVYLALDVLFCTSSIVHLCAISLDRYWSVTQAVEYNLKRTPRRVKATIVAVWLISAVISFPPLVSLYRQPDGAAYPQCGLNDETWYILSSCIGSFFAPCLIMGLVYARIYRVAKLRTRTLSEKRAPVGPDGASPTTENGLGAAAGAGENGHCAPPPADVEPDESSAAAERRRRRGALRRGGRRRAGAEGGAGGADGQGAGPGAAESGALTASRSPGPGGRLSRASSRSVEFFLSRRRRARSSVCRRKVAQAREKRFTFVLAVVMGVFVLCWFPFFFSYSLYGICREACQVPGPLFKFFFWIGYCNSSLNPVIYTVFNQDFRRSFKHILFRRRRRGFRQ
Description: PDSP Primary Binding target: ADRA2C - Compounds are tested at 10 uM concentration, plate are incubated at room temperature in the dark for 90 minutes. Reaction are stopped by vacuum filtration onto 0.3% polyethyleneimine soaked filter mats using Filtermate harvester. Scintilation cocktail is then melted onto microwave-dried filters on a hot plate and the radio activity is counted in Microbia counter.

Sequence of Kappa-type opioid receptor (Homo sapiens) (P41145 whole entry): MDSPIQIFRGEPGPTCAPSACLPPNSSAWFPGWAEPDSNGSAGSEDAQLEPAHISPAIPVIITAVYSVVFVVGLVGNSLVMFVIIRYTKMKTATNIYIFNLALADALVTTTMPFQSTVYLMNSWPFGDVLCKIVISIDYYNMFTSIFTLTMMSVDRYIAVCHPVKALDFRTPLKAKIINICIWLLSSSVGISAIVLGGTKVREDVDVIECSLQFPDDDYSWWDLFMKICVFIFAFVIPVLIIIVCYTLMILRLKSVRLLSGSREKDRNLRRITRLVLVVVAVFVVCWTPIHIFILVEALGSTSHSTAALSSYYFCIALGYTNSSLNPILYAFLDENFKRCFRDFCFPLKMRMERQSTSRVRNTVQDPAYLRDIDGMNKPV
Sequence of 5-hydroxytryptamine receptor 1B (Homo sapiens) (P28222 whole entry): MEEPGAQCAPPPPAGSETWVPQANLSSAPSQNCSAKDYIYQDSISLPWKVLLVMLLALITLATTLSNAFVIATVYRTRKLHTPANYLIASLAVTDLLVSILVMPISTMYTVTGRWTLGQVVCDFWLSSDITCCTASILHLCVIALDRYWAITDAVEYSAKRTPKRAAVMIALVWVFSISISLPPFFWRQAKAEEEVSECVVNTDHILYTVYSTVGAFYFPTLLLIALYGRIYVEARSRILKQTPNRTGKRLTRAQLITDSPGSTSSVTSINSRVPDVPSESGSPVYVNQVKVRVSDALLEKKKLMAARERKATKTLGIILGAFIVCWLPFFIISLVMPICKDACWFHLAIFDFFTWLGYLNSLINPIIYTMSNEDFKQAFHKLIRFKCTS

Row | SMILES | inhibition [1] | inhibition [2] | inhibition [3] | inhibition [4] | inhibition [5] | inhibition [6] | inhibition [7] | inhibition [8] | inhibition [9] | inhibition [10]
1 | COc1ccc(NS(=O)(=O)c2sc3ccc(Cl)cc3c2C)cc1N1CCNCC1 | 48.8% | 75.5% | 17% | 91% | 71.2% | 16.8% | 50.6% | 67.4% | 39.7% | 35.2%
2 | CCc1ccc(OCc2ccccc2C(=O)Nc2ccc3nc(C)cc(N)c3c2)cc1 | 46.6% | 72% | 11.9% | 33.9% | 74.8% | 24% | 3.07% | 9.8% | 45.6% | 40.9%
3 | CN1C2CCC1CC(OC(c1ccc(F)cc1)c1ccc(F)cc1)C2 (stereo not drawn) | 27.7% | 65.7% | 111% | 79.5% | 102% | 94.5% | 33% | 21.6% | 98.7% | –
4 | COC(=O)C1=C(C)NC(C)=C(C(=O)OCCCN2CCC(c3ccccc3)(c3ccccc3)CC2)[C@H]1c1cccc([N+](=O)[O-])c1 | 89.2% | 95.6% | 40.4% | 81.8% | 83.2% | 89.6% | 31.8% | 83.7% | 98.9% | 94.8%
5 | Clc1cccc(COc2cncc(N3CCNCC3)n2)c1 | 89% | 28.3% | 33.3% | 79.6% | 99.5% | 85.1% | 50.8% | 86% | 11.2% | 36.9%
6 | COc1ccc(/C=C/CCCCOc2ccc(C(=O)c3cccc(C(=O)O)c3)cc2CCC(=O)O)cc1 | 29.9% | 10.7% | 7.46% | 56.1% | -2.42% | 3.16% | 49.6% | 30.3% | 11.7% | 1.56%
7 | COc1cccc([C@@H](C)NCCCc2ccccc2Cl)c1 | 22.4% | 65.3% | 7% | 85% | 96.6% | 9.55% | 15.9% | 54.6% | 24% | 79.9%
8 | NC[C@@H]1O[C@H](C23CC4CC(CC(C4)C2)C3)Cc2c1ccc(O)c2O | 22.6% | 12.2% | -9.03% | 81% | 48.1% | 29.6% | -6.91% | 14.3% | -1.53% | 102%
9 | N#Cc1ccc2[nH]cc(CCCCN3CCN(c4ccc5oc(C(N)=O)cc5c4)CC3)c2c1 | 56.1% | 30.6% | -4.48% | 95.2% | 101% | 30.6% | 11.6% | 102% | 95.5% | 76.3%
10 | Oc1ccc2c3c1O[C@H]1c4[nH]c5c(c4C[C@@]4(O)[C@@H](C2)N(CC2CC2)CC[C@]314)C[C@@]1(O)[C@H]2Cc3ccc(O)c4c3[C@@]1(CCN2CC1CC1)[C@H]5O4 | 13.6% | 105% | 0.51% | 4.68% | 14.2% | -0.25% | 1.77% | – | 30.1% | 15.5%
11 | C[C@@H](NCCc1ccc(O)cc1)[C@@H](O)c1ccc(O)cc1 (relative stereo) | 2.73% | 23.2% | 3.91% | 34.6% | 34.1% | -3.49% | 13.4% | -2.23% | 7.01% | 23.6%
12 | Cc1nc2sccn2c(=O)c1CCN1CCC(=C(c2ccc(F)cc2)c2ccc(F)cc2)CC1 | 96% | 65.8% | 34.1% | 94.6% | 89.4% | -0.02% | 19% | 30.5% | 96.8% | 94.9%
13 | CCCCN1CCC(COC(=O)c2cc(Cl)c(N)c3c2OCCO3)CC1 | 35.3% | 7.01% | 5.99% | 58.8% | 68.3% | -7.37% | 10.7% | -1.01% | 52.9% | 78.8%
14 | c1ccc(N2CCN(Cc3nc4ccccc4[nH]3)CC2)nc1 | 6.19% | 54.7% | -8.11% | 33.1% | 16.4% | -1.59% | 13.5% | 35.1% | 6.23% | 4.37%
15 | O=S1(=O)c2cccc3cccc(c23)N1CCCN1CCN(c2ccc(F)cc2)CC1 | 31.4% | 56% | 10.3% | 58.5% | 93.9% | 15.9% | 8.94% | 91.6% | 97.8% | 98.7%
16 | CCCSc1nc(N[C@@H]2C[C@H]2c2ccc(F)c(F)c2)c2nnn([C@@H]3C[C@H](OCCO)[C@@H](O)[C@H]3O)c2n1 | 19.3% | 27.5% | -1.83% | 29.6% | 33.3% | 10.8% | 4.3% | 11.6% | 11.7% | 15.4%
17 | Cc1ccccc1C(=O)Nc1ccc(C(=O)N2CCCC(O)c3cc(Cl)ccc32)c(C)c1 (stereo not drawn) | 14.4% | 21% | 2.3% | 33% | 74.7% | 4.97% | 12.2% | 7.65% | 8.56% | 9.34%
